In this assay the target is T1, TACE (ADAM17) (Homo sapiens, UniProt P78536).
T1 construct: made in house; host or cells: mammalian cells or insect cells
Nature of the assay: TACE (ADAM17) inhibition test. The class given is biochemical. Conditions: fluorescent synthetic substrate, 37° C. for 1.5 hours; read-out: TACE IC50. The text has this: The nucleotide sequence of TACE has been reported by Moss et al. (Moss, M. L. et al., Nature 1997, vol. 385, pp. 733-736). Based on this information, the cDNA of TACE was obtained according to the prescribed method from THP-1 cells or the like, and then incorporated the cDNA into an expression vector. Next, this vector was transformed into mammalian cells or insect cells, and TACE protein was expressed. The TACE protein was isolated, and used as an enzyme. Further, a fluorescent synthetic substrate Nma(N-methylanthranilic acid)-Leu-Ala-Gln-Ala-Val-Arg-Ser-Ser-Lys(Dnp(dinitrophenyl))-D-Arg-NH2 including the TACE-cleaved sequence of a membrane-bound TNF was used as a substrate. The enzyme reaction was carried out by adding 1.8 μL of a solution of the test substance to 90 μL of a fluorescent synthetic substrate prepared with an assay buffer B (50 mM tris-hydrochloric acid buffer (pH 7.5) including 200 mM sodium chloride, 5 mM calcium chloride, 10 μM zinc sulfate, and 0.05% PLURONIC F-68), then mixing 90 μL of a TACE enzyme solution prepared with an assay buffer A (50 mM tris-hydrochloric acid buffer (pH 7.5) including 200 mM sodium chloride, 5 mM calcium chloride, 10 μM zinc sulfate, and 2 mg/mL bovine serum albumin) and reacting at 37° C. for 1.5 hours. Enzyme activity was then determined by measuring with a fluorescence intensity meter (Labsystems, Fluoroskan Ascent) at an excitation wavelength of 355 nm and a measurement wavelength of 460 nm. The 50% inhibitory concentration (IC50) of the test substances was calculated by comparing enzyme activity in the presence and the absence of the test substance to determine the inhibition rate. Further, test substances having an IC50 strength of less than 100 nM were evaluated as “A”, and test substances having an IC50 strength of 100 nM or more were evaluated as “B”.

One may read the IC50 as the point on the concentration scale where inhibition reaches its midpoint.

T1 sequence (P78536 215-824): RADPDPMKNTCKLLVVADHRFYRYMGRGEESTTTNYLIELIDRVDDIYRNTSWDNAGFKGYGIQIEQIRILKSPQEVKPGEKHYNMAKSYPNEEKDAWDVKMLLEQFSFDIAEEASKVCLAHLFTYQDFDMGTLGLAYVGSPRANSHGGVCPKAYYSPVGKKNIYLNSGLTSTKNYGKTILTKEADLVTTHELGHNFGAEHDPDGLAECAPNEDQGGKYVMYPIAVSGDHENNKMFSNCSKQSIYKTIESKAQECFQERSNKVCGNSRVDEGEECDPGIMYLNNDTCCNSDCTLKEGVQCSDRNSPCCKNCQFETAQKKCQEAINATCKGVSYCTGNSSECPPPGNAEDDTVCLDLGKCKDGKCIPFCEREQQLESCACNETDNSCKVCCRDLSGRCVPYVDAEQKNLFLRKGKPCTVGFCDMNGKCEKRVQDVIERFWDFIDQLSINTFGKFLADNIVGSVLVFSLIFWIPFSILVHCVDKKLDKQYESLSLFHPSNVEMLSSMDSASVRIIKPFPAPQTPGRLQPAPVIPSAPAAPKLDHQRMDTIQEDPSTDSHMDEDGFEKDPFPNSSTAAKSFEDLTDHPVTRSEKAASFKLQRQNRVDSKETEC

For `Cc1cccn(CC2(c3ccccn3)NC(=O)NC2=O)c1=O` (racemic) [Compound I-7, 5-[(3-methyl-2-oxopyridin-1(2H)-yl)methyl]-5-(pyridin-2-yl)imidazolidine-2,4-dione], the IC50 was below 100 nM.

`Cc1cccn(CC2(c3cc(F)ccc3F)NC(=O)NC2=O)c1=O` (racemic) [Compound I-154]: the concentration for half-maximal inhibition (IC50) was below 100 nM.

Consider `Cc1cccn(CC2(c3ccc(C4CCCCC4)cc3)NC(=O)NC2=O)c1=O` (racemic) [Compound I-66], for which the IC50 is below 100 nM.

With `Cc1cccn(CC2(c3cccc(-c4ccccc4)c3)NC(=O)NC2=O)c1=O` (racemic) [Compound I-96], the concentration for half-maximal inhibition (IC50) is below 100 nM.

For the compound `Cc1cccn(CC2(c3ccc(Oc4cccc(F)c4)cc3)NC(=O)NC2=O)c1=O` (racemic) [Compound I-84], the IC50 was below 100 nM.

On to `C=C(C)c1cccn(CC2(c3ccc(OC)cc3)NC(=O)NC2=O)c1=O` (racemic) [Compound I-144], for which the IC50 is at least 100 nM.

As to `COc1ccccc1Oc1ccc(C2(Cn3cccc(C)c3=O)NC(=O)NC2=O)cc1F` (racemic) [Compound I-114], the IC50 was below 100 nM.

As for `COc1cc(C2(Cn3cccc(C)c3=O)NC(=O)NC2=O)cc(F)c1F` (racemic) [Compound I-127], the IC50 is below 100 nM.

As to `Cc1cccn(CC2(c3cccc(C#CC(C)(C)C)c3)NC(=O)NC2=O)c1=O` (racemic) [Compound I-63], the IC50 was at least 100 nM.

For `Cc1cc(C2(Cn3cccc(C)c3=O)NC(=O)NC2=O)ccc1F` (racemic) [Compound I-30, 5-(4-fluoro-3-methylphenyl)-5-[(3-methyl-2-oxopyridin-1(2H)-yl)methyl]imidazolidine-2,4-dione], the IC50 was below 100 nM.

Consider `CCOc1ccc(C2(Cn3cccc(C)c3=O)NC(=O)NC2=O)cc1` (racemic) [Compound I-119], for which the half-maximal inhibitory concentration (IC50) is below 100 nM.

On to `Cc1ccccc1Oc1ccc(C2(Cn3cccc(C)c3=O)NC(=O)NC2=O)cc1` (racemic) [Compound I-35, 5-[(3-methyl-2-oxopyridin-1(2H)-yl)methyl]-5-[4-(o-tolyloxy)phenyl]imidazolidine-2,4-dione], for which the IC50 is below 100 nM.

On to `Cc1cccn(CC2(c3ccccc3OCc3ccccc3)NC(=O)NC2=O)c1=O` (racemic) [Compound I-68], for which the concentration for half-maximal inhibition (IC50) was at least 100 nM.

Turning to `Cc1cccn(CC2(c3ccc(OCc4ccc(F)cc4)cc3)NC(=O)NC2=O)c1=O` (racemic) [Compound I-88], the IC50 is below 100 nM.

Consider `Cc1cccn(CC2(c3cc(F)c(F)cc3F)NC(=O)NC2=O)c1=O` (racemic) [Compound I-29, 5-[(3-methyl-2-oxopyridin-1(2H)-yl)methyl]-5-(2,4,5-trifluorophenyl)imidazolidine-2,4-dione], for which the IC50 was below 100 nM.

Take `Cc1cccn(CC2(c3ccccc3)NC(=O)NC2=O)c1=O` (racemic) [Compound I-1, 5-[(3-methyl-2-oxopyridin-1(2H)-yl)methyl]-5-phenyl-imidazolidine-2,4-dione]: the IC50 was below 100 nM.

Consider `Cc1cccn(CC2(c3ccc(F)cc3)NC(=O)NC2=O)c1=O` (racemic) [Compound I-15, 5-(4-fluorophenyl)-5-[(3-methyl-2-oxopyridin-1(2H)-yl)methyl]imidazolidine-2,4-dione], for which the IC50 is below 100 nM.

For the compound `Cc1cccn(CC2(c3cccc(-c4ccc(F)cn4)c3)NC(=O)NC2=O)c1=O` (racemic) [Compound I-93], the IC50 was below 100 nM.

As to `CCc1ccc(C2(Cn3cccc(C)c3=O)NC(=O)NC2=O)cc1` (racemic) [Compound I-116], the IC50 is below 100 nM.

For `Cc1cc(C2(Cn3cccc(C)c3=O)NC(=O)NC2=O)ccc1OC1CCCCC1` (racemic) [Compound I-131], the IC50 is below 100 nM.

On to `Cc1cccn(CC2(c3cccc(-c4cccnc4)c3)NC(=O)NC2=O)c1=O` (racemic) [Compound I-62], for which the IC50 is below 100 nM.

For `Cc1cccn(CC2(c3cccc(F)c3)NC(=O)NC2=O)c1=O` (racemic) [Compound I-28, 5-(3-fluorophenyl)-5-[(3-methyl-2-oxopyridin-1(2H)-yl)methyl]imidazolidine-2,4-dione], the IC50 was below 100 nM.

Take `Cc1cccn(CC2(c3cccc(-c4ccncc4)c3)NC(=O)NC2=O)c1=O` (racemic) [Compound I-95]: the IC50 was below 100 nM.

Turning to `Cc1cccn(CC2(c3ccc(C#CC(C)(C)C)cc3)NC(=O)NC2=O)c1=O` (racemic) [Compound I-33, 5-[4-(3,3-dimethylbut-1-yn-1-yl)phenyl]-5-[(3-methyl-2-oxopyridin-1(2H)-yl)methyl]imidazolidine-2,4-dione], the IC50 was below 100 nM.

Turning to `Cc1cccn(CC2(c3ccc(C#Cc4ccccc4)cc3)NC(=O)NC2=O)c1=O` (racemic) [Compound I-106], the IC50 is below 100 nM.

Consider `Cc1cccn(CC2(c3ccc4sccc4c3)NC(=O)NC2=O)c1=O` (racemic) [Compound I-23, 5-(benzo[b]thiophen-5-yl)-5-[(3-methyl-2-oxopyridin-1(2H)-yl)methyl]imidazolidine-2,4-dione], for which the IC50 was below 100 nM.

As for `Cc1cccn(CC2(c3ccc(OCc4ccccc4)cc3)NC(=O)NC2=O)c1=O` (racemic) [Compound I-64], the 50% inhibitory concentration (IC50) is below 100 nM.

With `Cc1cccn(CC2(c3ccc(Oc4ccccc4)c(F)c3)NC(=O)NC2=O)c1=O` (racemic) [Compound I-87], the IC50 was below 100 nM.

Take `Cc1cc(C2(Cn3cccc(C)c3=O)NC(=O)NC2=O)ccc1OC1CCCC1` (racemic) [Compound I-39, 5-[4-(cyclopentyloxy)-3-methylphenyl]-5-[(3-methyl-2-oxopyridin-1(2H)-yl)methyl]imidazolidine-2,4-dione]: the IC50 is below 100 nM.

With `Cc1cccn(CC2(c3ccc(Oc4ccccc4)cc3)NC(=O)NC2=O)c1=O` (racemic) [Compound I-9, 5-[(3-methyl-2-oxopyridin-1(2H)-yl)methyl]-5-(4-phenoxyphenyl)imidazolidine-2,4-dione], the IC50 was below 100 nM.

Consider `Cc1cccn(CC2(c3cccc(C(F)(F)F)c3)NC(=O)NC2=O)c1=O` (racemic) [Compound I-19], for which the IC50 was below 100 nM.

`Cc1cccn(CC2(c3ccc(Cc4ccc(Cl)cc4)cc3)NC(=O)NC2=O)c1=O` (racemic) [Compound I-130]: the IC50 is below 100 nM.

Regarding `Cc1cccn(CC2(c3ccc4ccccc4c3)NC(=O)NC2=O)c1=O` (racemic) [Compound I-56], the IC50 is below 100 nM.

With `COCOc1ccc(C2(Cn3cccc(C)c3=O)NC(=O)NC2=O)cc1` (racemic) [Compound I-13, 5-[4-(methoxymethoxy)phenyl]-5-[(3-methyl-2-oxopyridin-1(2H)-yl)methyl]imidazolidine-2,4-dione], the IC50 was below 100 nM.

Take `Cc1cccn(CC2(c3cccc(Br)c3)NC(=O)NC2=O)c1=O` (racemic) [Compound I-57]: the half-maximal inhibitory concentration (IC50) was below 100 nM.

Consider `Cc1cccn(CC2(c3ccc(-c4cccnc4)cc3)NC(=O)NC2=O)c1=O` (racemic) [Compound I-32, 5-[(3-methyl-2-oxopyridin-1(2H)-yl)methyl]-5-[4-(pyridin-3-yl)phenyl]imidazolidine-2,4-dione], for which the IC50 is below 100 nM.

In the case of `Cc1cccn(CC2(c3ccc(Oc4ccc(F)cc4)c(F)c3)NC(=O)NC2=O)c1=O` (racemic) [Compound I-111], the IC50 was below 100 nM.

For `O=C1NC(=O)C(Cn2cccc(F)c2=O)(c2ccc3ccccc3c2)N1` (racemic) [Compound I-135], the IC50 was below 100 nM.

For the compound `Cc1cc(C2(Cn3cccc(C)c3=O)NC(=O)NC2=O)cc(C)c1OC1CCCC1` (racemic) [Compound I-129], the IC50 was below 100 nM.

For `Cc1cccn(CC2(c3ccc(-c4ccc(F)cc4)cc3)NC(=O)NC2=O)c1=O` (racemic) [Compound I-75], the IC50 is below 100 nM.

As for `Cc1cccn(CC2(c3ccncc3)NC(=O)NC2=O)c1=O` (racemic) [Compound I-55], the IC50 is below 100 nM.

On to `O=C1NC(=O)C(Cn2cccc(C(F)(F)F)c2=O)(c2ccccc2)N1` (racemic) [Compound I-140], for which the IC50 is below 100 nM.

`COc1cccc(-c2ccc(C3(Cn4cccc(C)c4=O)NC(=O)NC3=O)cc2)c1` (racemic) [Compound I-73]: the IC50 was below 100 nM.

In the case of `Cc1cccn(CC2(c3ccc(Oc4cccnc4)c(F)c3)NC(=O)NC2=O)c1=O` (racemic) [Compound I-122], the IC50 was below 100 nM.

Regarding `COc1ccc(C)cc1C1(Cn2cccc(C)c2=O)NC(=O)NC1=O` (racemic) [Compound I-76], the IC50 is at least 100 nM.

Consider `COc1ccc(C2(Cn3ccccc3=O)NC(=O)NC2=O)cc1` (racemic) [Compound I-47, 5-(4-methoxyphenyl)-5-[(2-oxopyridin-1(2H)-yl)methyl]imidazolidine-2,4-dione], for which the IC50 was below 100 nM.

In the case of `Cc1cccn(CC2(c3ccc(C(C)C)cc3)NC(=O)NC2=O)c1=O` (racemic) [Compound I-117], the IC50 is below 100 nM.

The values are drawn from US20160168540A1, “COMPOSITION FOR MAINTAINING PLATELET FUNCTION” (KYOTO UNIVERSITY, priority 2013, published 2016).
